Measured values published in patent US20080292619A1, “Pharmaceutical Composition Containing Meltrin Antagonist” (MOCHIDA PHARMACEUTICAL CO., LTD., priority 2004, published 2008).
In the oligonucleotide strings, read from the 5' end, every base follows the letter of its sugar. An asterisk marks phosphorothioate; unmarked linkages are phosphodiester. Other units and linkages are bracketed, terminal groups are in braces. A string of capitals states the bases alone. d = 2'-deoxy (DNA)

These substances were tested on human meltrin α RNA (assay: Suppression of human meltrin α expression by antisense compound in RD cell (real time PCR)). Conditions: 50 nM; RD cell; corrected by GAPDH.
Type: cell-based
Procedure, shortened: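 RD cells transfected with heat-denatured antisense oligodeoxynucleotide plus Lipofectin in Opti-MEM for 4 h at 37° C, then cultured 18 h. Meltrin α RNA quantified by TaqMan RT-PCR against plasmid standard curve, GAPDH-corrected; suppression vs untreated cells, rated +/++/+++ for ≥30/50/70%.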

Row | Substance | suppression rate of expression, 50 nM
1 | H110: caagccctgggtccggcatg (dC*dA*dA*dG*dC*dC*dC*dT*dG*dG*dG*dT*dC*dC*dG*dG*dC*dA*dT*dG; antisense) | + (“+” when the suppression rate was at least 30%)
2 | H118: ggaggtgcccagtgggcctc (GGAGGTGCCCAGTGGGCCTC; antisense; DNA, all phosphorothioate, methylation of C not given here) | + (“+” when the suppression rate was at least 30%)
3 | H130 + 5: gagcctgacagggttggaag (GAGCCTGACAGGGTTGGAAG; antisense; DNA, all phosphorothioate, methylation of C not given here) | ++ (“++” when the suppression rate was at least 50%)
4 | H130 + 10: gaggtgagcctgacagggtt (GAGGTGAGCCTGACAGGGTT; antisense; DNA, all phosphorothioate, methylation of C not given here) | + (“+” when the suppression rate was at least 30%)
5 | H130 + 15: tggccgaggtgagcctgaca (TGGCCGAGGTGAGCCTGACA; antisense; DNA, all phosphorothioate, methylation of C not given here) | ++ (“++” when the suppression rate was at least 50%)
6 | H131 + 5: ttttccaaggtggccgaggt (TTTTCCAAGGTGGCCGAGGT; antisense; DNA, all phosphorothioate, methylation of C not given here) | + (“+” when the suppression rate was at least 30%)
7 | H131 + 10: aggccttttccaaggtggcc (AGGCCTTTTCCAAGGTGGCC; antisense; DNA, all phosphorothioate, methylation of C not given here) | + (“+” when the suppression rate was at least 30%)
8 | H132 + 15: gtaggaatctggcggcttcc (GTAGGAATCTGGCGGCTTCC; antisense; DNA, all phosphorothioate, methylation of C not given here) | + (“+” when the suppression rate was at least 30%)
9 | H132 + 17: gggtaggaatctggcggctt (GGGTAGGAATCTGGCGGCTT; antisense; DNA, all phosphorothioate, methylation of C not given here) | ++ (“++” when the suppression rate was at least 50%)
10 | H132 + 18: tgggtaggaatctggcggct (TGGGTAGGAATCTGGCGGCT; antisense; DNA, all phosphorothioate, methylation of C not given here) | + (“+” when the suppression rate was at least 30%)
11 | H132 + 19: gtgggtaggaatctggcggc (GTGGGTAGGAATCTGGCGGC; antisense; DNA, all phosphorothioate, methylation of C not given here) | + (“+” when the suppression rate was at least 30%)
12 | H133 + 1: cggtgggtaggaatctggcg (CGGTGGGTAGGAATCTGGCG; antisense; DNA, all phosphorothioate, methylation of C not given here) | ++ (“++” when the suppression rate was at least 50%)
13 | H133 + 3: ttcggtgggtaggaatctgg (TTCGGTGGGTAGGAATCTGG; antisense; DNA, all phosphorothioate, methylation of C not given here) | + (“+” when the suppression rate was at least 30%)
14 | H133 + 4: cttcggtgggtaggaatctg (CTTCGGTGGGTAGGAATCTG; antisense; DNA, all phosphorothioate, methylation of C not given here) | ++ (“++” when the suppression rate was at least 50%)
15 | H133 + 5: ccttcggtgggtaggaatct (CCTTCGGTGGGTAGGAATCT; antisense; DNA, all phosphorothioate, methylation of C not given here) | + (“+” when the suppression rate was at least 30%)
16 | H133: ggtgggtaggaatctggcgg (GGTGGGTAGGAATCTGGCGG; antisense; DNA, all phosphorothioate, methylation of C not given here) | +++ (“+++” when the suppression rate was at least 70%)
17 | H134: atctcctgggattgtccttc (ATCTCCTGGGATTGTCCTTC; antisense; DNA, all phosphorothioate, methylation of C not given here) | + (“+” when the suppression rate was at least 30%)
18 | H135: aacattctgacactgcagca (AACATTCTGACACTGCAGCA; antisense; DNA, all phosphorothioate, methylation of C not given here) | + (“+” when the suppression rate was at least 30%)
19 | H136 + 5: ggccgttgaggggtctgctg (GGCCGTTGAGGGGTCTGCTG; antisense; DNA, all phosphorothioate, methylation of C not given here) | + (“+” when the suppression rate was at least 30%)

Same assay, conditions: 200 nM; RD cell; corrected by GAPDH

Row | Substance | suppression rate of expression, 200 nM
20 | H094: atgccattgtagcagtagcc (dA*dT*dG*dC*dC*dA*dT*dT*dG*dT*dA*dG*dC*dA*dG*dT*dA*dG*dC*dC; antisense) | + (“+” when the suppression rate was at least 30%)
21 | H096: tccccagagtgtgacacact (dT*dC*dC*dC*dC*dA*dG*dA*dG*dT*dG*dT*dG*dA*dC*dA*dC*dA*dC*dT; antisense) | + (“+” when the suppression rate was at least 30%)
22 | H098: ctctctcaaagcagatccca (dC*dT*dC*dT*dC*dT*dC*dA*dA*dA*dG*dC*dA*dG*dA*dT*dC*dC*dC*dA; antisense) | + (“+” when the suppression rate was at least 30%)
23 | H099: aggatcacctgcagaattga (dA*dG*dG*dA*dT*dC*dA*dC*dC*dT*dG*dC*dA*dG*dA*dA*dT*dT*dG*dA; antisense) | + (“+” when the suppression rate was at least 30%)
24 | H100: actttgccacagttgccata (dA*dC*dT*dT*dT*dG*dC*dC*dA*dC*dA*dG*dT*dT*dG*dC*dC*dA*dT*dA; antisense) | + (“+” when the suppression rate was at least 30%)
25 | H102: agcatctctcatctcgcatt (dA*dG*dC*dA*dT*dC*dT*dC*dT*dC*dA*dT*dC*dT*dC*dG*dC*dA*dT*dT; antisense) | + (“+” when the suppression rate was at least 30%)
26 | H104: gccggctggcacctccttga (dG*dC*dC*dG*dG*dC*dT*dG*dG*dC*dA*dC*dC*dT*dC*dC*dT*dT*dG*dA; antisense) | +++ (“+++” when the suppression rate was at least 70%)
27 | H105: ggcattggtaccaatgactg (dG*dG*dC*dA*dT*dT*dG*dG*dT*dA*dC*dC*dA*dA*dT*dG*dA*dC*dT*dG; antisense) | + (“+” when the suppression rate was at least 30%)
28 | H107: ggcctccttgctgcaggggg (dG*dG*dC*dC*dT*dC*dC*dT*dT*dG*dC*dT*dG*dC*dA*dG*dG*dG*dG*dG; antisense) | ++ (“++” when the suppression rate was at least 50%)
29 | H109: tcatcgcccaagtacacgtg (dT*dC*dA*dT*dC*dG*dC*dC*dC*dA*dA*dG*dT*dA*dC*dA*dC*dG*dT*dG; antisense) | ++ (“++” when the suppression rate was at least 50%)
30 | H110: caagccctgggtccggcatg (dC*dA*dA*dG*dC*dC*dC*dT*dG*dG*dG*dT*dC*dC*dG*dG*dC*dA*dT*dG; antisense) | ++ (“++” when the suppression rate was at least 50%)
31 | H111: acactttgtgcctgcaagca (dA*dC*dA*dC*dT*dT*dT*dG*dT*dG*dC*dC*dT*dG*dC*dA*dA*dG*dC*dA; antisense) | + (“+” when the suppression rate was at least 30%)
32 | H114: gtgaaccccaaagacactaa (dG*dT*dG*dA*dA*dC*dC*dC*dC*dA*dA*dA*dG*dA*dC*dA*dC*dT*dA*dA; antisense) | + (“+” when the suppression rate was at least 30%)
33 | H115: tggcactgcattgcacactc (dT*dG*dG*dC*dA*dC*dT*dG*dC*dA*dT*dT*dG*dC*dA*dC*dA*dC*dT*dC; antisense) | ++ (“++” when the suppression rate was at least 50%)
34 | H117: gcagtggcagttcttcctgt (GCAGTGGCAGTTCTTCCTGT; antisense; DNA, all phosphorothioate, methylation of C not given here) | + (“+” when the suppression rate was at least 30%)
35 | H118: ggaggtgcccagtgggcctc (GGAGGTGCCCAGTGGGCCTC; antisense; DNA, all phosphorothioate, methylation of C not given here) | ++ (“++” when the suppression rate was at least 50%)
36 | H119: agccaaacttgtcacagaag (AGCCAAACTTGTCACAGAAG; antisense; DNA, all phosphorothioate, methylation of C not given here) | + (“+” when the suppression rate was at least 30%)
37 | H123: caggatggtcaccagaattc (CAGGATGGTCACCAGAATTC; antisense; DNA, all phosphorothioate, methylation of C not given here) | + (“+” when the suppression rate was at least 30%)
38 | H126: cagcagtcgtatcaaggtct (CAGCAGTCGTATCAAGGTCT; antisense; DNA, all phosphorothioate, methylation of C not given here) | + (“+” when the suppression rate was at least 30%)
39 | H129: gggtggccgggaagggcgca (GGGTGGCCGGGAAGGGCGCA; antisense; DNA, all phosphorothioate, methylation of C not given here) | ++ (“++” when the suppression rate was at least 50%)
40 | H132: cttcctcatcaggccttttc (CTTCCTCATCAGGCCTTTTC; antisense; DNA, all phosphorothioate, methylation of C not given here) | ++ (“++” when the suppression rate was at least 50%)
41 | H133: ggtgggtaggaatctggcgg (GGTGGGTAGGAATCTGGCGG; antisense; DNA, all phosphorothioate, methylation of C not given here) | +++ (“+++” when the suppression rate was at least 70%)
42 | H134: atctcctgggattgtccttc (ATCTCCTGGGATTGTCCTTC; antisense; DNA, all phosphorothioate, methylation of C not given here) | ++ (“++” when the suppression rate was at least 50%)
43 | H135: aacattctgacactgcagca (AACATTCTGACACTGCAGCA; antisense; DNA, all phosphorothioate, methylation of C not given here) | ++ (“++” when the suppression rate was at least 50%)
